Our source for the IC50 values is patent publication US20260125366A1, “METHODS FOR TREATING CANCER” (SCORPION THERAPEUTICS, INC., priority 2022, published 2026).

SMILES strings stand for the structures.

The target of this assay is PI3Kα H1047R (Homo sapiens, UniProt P42336, H1047R). Put plainly: ADP-Glo assay. To be noted: 2 nM H1047R enzyme; 1 hour incubation with compound at room temperature; ATPase reaction 100 min. It counts as biochemical. How it is done:
Compounds were plated using acoustic liquid dispensing on the Echo 655T by transferring 50 nL/well compound DMSO solution from an Echo source plate to a 384-well assay plate to generate a 10-point dose response curve with a top final concentration of […], 1:3 serial dilution down; the same volume of DMSO was dispensed to wells designated as positive and negative controls. On the day of the assay, a 2X enzyme solution in the assay buffer (50 mM Tris, 150 mM NaCl, 0.01% Brij35, 15 mM MgCl2, 0.05% Tween-20, and 1 mM DTT) was prepared. The enzyme concentrations used were: 20 nM for wild-type, 2 nM for H1047R and H1047L, and 10 nM for H1047Y proteins. 2.5 µL/well of 2X enzyme solution was dispensed into the assay plates and the enzyme was incubated with the test compound at room temperature for 1 hour; the same volume of assay buffer without enzyme was dispensed to wells designated as positive controls. At the end of the incubation, 2.5 µL/well of 2X ATP solution in assay buffer was dispensed to initiate the ATPase reaction and incubated at room temperature for 100 min. Reactions were terminated and ADP production measured using the ADP-Glo kit following instructions from the manufacturer.
The IC50(nM) ranges are as follows: A denotes <200 nM; B denotes 200 nM≤IC50<500 nM; C denotes ≥500 nM. ND denotes value not determined with that assay for the specified compound.

PI3Kα H1047R, sequence (P42336 whole entry H1047R): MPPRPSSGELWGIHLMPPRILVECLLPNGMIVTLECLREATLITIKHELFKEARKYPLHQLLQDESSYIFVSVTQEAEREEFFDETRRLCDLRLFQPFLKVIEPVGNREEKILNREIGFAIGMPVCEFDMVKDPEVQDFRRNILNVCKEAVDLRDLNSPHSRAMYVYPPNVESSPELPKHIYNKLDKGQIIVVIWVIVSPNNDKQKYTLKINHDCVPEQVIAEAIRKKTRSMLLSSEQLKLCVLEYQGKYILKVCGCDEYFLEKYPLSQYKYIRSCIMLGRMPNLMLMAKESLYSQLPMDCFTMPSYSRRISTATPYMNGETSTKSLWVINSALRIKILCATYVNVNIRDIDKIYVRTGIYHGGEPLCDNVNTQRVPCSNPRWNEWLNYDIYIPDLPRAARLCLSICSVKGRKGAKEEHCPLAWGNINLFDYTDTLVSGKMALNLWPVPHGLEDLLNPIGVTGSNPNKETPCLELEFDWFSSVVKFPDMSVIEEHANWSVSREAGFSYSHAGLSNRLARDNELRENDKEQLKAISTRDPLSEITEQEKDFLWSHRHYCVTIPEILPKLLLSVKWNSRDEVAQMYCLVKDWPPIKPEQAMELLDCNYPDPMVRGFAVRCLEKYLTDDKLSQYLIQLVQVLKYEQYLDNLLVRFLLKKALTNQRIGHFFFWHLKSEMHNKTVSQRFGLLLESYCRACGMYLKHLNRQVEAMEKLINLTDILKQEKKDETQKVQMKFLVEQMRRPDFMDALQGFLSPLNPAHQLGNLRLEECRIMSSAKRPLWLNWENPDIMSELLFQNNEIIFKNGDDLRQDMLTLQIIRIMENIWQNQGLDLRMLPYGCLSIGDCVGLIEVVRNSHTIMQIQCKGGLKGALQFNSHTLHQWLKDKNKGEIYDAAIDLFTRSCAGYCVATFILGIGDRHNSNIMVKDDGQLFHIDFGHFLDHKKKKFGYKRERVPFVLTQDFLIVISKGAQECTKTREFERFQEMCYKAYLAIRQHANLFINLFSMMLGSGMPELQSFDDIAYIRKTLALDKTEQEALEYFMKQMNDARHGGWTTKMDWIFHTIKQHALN
PI3Kα H1047R, sequence (P27986 whole entry partner): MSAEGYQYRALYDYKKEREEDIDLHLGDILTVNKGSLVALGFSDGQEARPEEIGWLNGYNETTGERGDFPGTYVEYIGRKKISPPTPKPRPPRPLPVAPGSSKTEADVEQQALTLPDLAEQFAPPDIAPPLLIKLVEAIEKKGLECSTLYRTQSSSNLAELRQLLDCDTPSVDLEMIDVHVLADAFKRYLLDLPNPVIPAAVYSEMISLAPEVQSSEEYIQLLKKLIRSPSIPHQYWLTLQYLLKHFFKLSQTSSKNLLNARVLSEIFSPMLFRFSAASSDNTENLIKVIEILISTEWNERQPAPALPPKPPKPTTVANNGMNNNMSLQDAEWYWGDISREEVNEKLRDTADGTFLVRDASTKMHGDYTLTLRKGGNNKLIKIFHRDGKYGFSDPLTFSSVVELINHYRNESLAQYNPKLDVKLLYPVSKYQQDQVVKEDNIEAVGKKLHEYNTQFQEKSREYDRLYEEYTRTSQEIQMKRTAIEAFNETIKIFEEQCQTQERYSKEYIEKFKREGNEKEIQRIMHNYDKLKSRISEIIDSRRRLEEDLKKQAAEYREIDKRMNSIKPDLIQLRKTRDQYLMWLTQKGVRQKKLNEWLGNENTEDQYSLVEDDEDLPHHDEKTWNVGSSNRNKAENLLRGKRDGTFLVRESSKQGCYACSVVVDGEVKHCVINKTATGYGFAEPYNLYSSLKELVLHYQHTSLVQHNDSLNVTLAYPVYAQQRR

Regarding `Cn1c(C(NC(=O)Nc2cnc(N)nc2)C(F)(F)F)cc2ccc(F)cc21` (stereo not shown) [Compound 1, 1-(2-aminopyrimidin-5-yl)-3-[2,2,2-trifluoro-1-(6-fluoro-1-methylindol-2-yl)ethyl]urea], the 50% inhibitory concentration (IC50) was under 200 nM.

Regarding `Cc1c([C@@H](NC(=O)Nc2cnc(N)nc2)C(F)(F)F)n(C)c2c(F)cc(F)cc12` [Compound 3, 1-(2-aminopyrimidin-5-yl)-3-[(1R)-1-(5,7-difluoro-1,3-dimethylindol-2-yl)-2,2,2-trifluoroethyl]ureas], the IC50 is 200 to 500 nM.

As for `CC(C)C(NC(=O)Nc1cnc(N)nc1)c1cc2ccc(F)cc2n1C` (stereo not shown) [Compound 2, 1-(2-aminopyrimidin-5-yl)-3-[1-(6-fluoro-1-methylindol-2-yl)-2-methylpropyl]urea], the IC50 is under 200 nM.

Consider `Cn1c([C@@H](NC(=O)Nc2cnc(N)nc2)C(F)(F)F)nc2c(F)cc(F)cc21` (racemic) [Compound 7], for which the IC50 is under 200 nM.

On to `Cn1c([C@@H](NC(=O)Nc2cnc(N)nc2)C(F)(F)F)cc2c(F)cc(F)cc21` (racemic) [Compound 9], for which the IC50 was under 200 nM.

As for `Cc1c([C@@H](NC(=O)Nc2cnc(N)nc2)C(F)(F)F)nc2ccc(F)cn12` (racemic) [Compound 11], the IC50 is at least 500 nM.

Take `Cc1c([C@@H](NC(=O)Nc2cnc(N)nc2)C(F)(F)F)nn2ccccc12` (racemic) [Compound 5]: the IC50 was at least 500 nM.
